Results: ChEMBL document CHEMBL3044687, “Microwave-assisted synthesis of some novel and potent antibacterial and antifungal compounds with biological screening” (2012)

Legend:
Assay type in all cases: functional
Settings in all cases: read-out: DIZ
Aspergillus niger [1] = test: Antifungal activity against Aspergillus niger at 100 ug/ml after 48 hr by disk diffusion method
Candida albicans [2] = test: Antifungal activity against Candida albicans at 100 ug/ml after 48 hr by disk diffusion method
Escherichia coli [3] = test: Antibacterial activity against Escherichia coli at 200 ug/ml after 24 hr by disk diffusion method
Escherichia coli [4] = test: Antibacterial activity against Escherichia coli at 100 ug/ml after 24 hr by disk diffusion method
Staphylococcus aureus [5] = test: Antibacterial activity against Staphylococcus aureus at 200 ug/ml after 24 hr by disk diffusion method
Candida albicans [6] = test: Antifungal activity against Candida albicans at 200 ug/ml after 48 hr by disk diffusion method
Pseudomonas aeruginosa [7] = test: Antibacterial activity against Pseudomonas aeruginosa at 100 ug/ml after 24 hr by disk diffusion method
Pseudomonas aeruginosa [8] = test: Antibacterial activity against Pseudomonas aeruginosa at 200 ug/ml after 24 hr by disk diffusion method
Staphylococcus aureus [9] = test: Antibacterial activity against Staphylococcus aureus at 50 ug/ml after 24 hr by disk diffusion method
Aspergillus niger [10] = test: Antifungal activity against Aspergillus niger at 200 ug/ml after 48 hr by disk diffusion method
Escherichia coli [11] = test: Antibacterial activity against Escherichia coli at 50 ug/ml after 24 hr by disk diffusion method
Aspergillus niger [12] = test: Antifungal activity against Aspergillus niger at 50 ug/ml after 48 hr by disk diffusion method
Bacillus subtilis [13] = test: Antibacterial activity against Bacillus subtilis at 200 ug/ml after 24 hr by disk diffusion method
Bacillus subtilis [14] = test: Antibacterial activity against Bacillus subtilis at 100 ug/ml after 24 hr by disk diffusion method
Staphylococcus aureus [15] = test: Antibacterial activity against Staphylococcus aureus at 100 ug/ml after 24 hr by disk diffusion method
Candida albicans [16] = test: Antifungal activity against Candida albicans at 50 ug/ml after 48 hr by disk diffusion method
Pseudomonas aeruginosa [17] = test: Antibacterial activity against Pseudomonas aeruginosa at 50 ug/ml after 24 hr by disk diffusion method
Bacillus subtilis [18] = test: Antibacterial activity against Bacillus subtilis at 50 ug/ml after 24 hr by disk diffusion method

Structure (SMILES)	zone of inhibition at 100 µg/mL (Aspergillus niger [1])	zone of inhibition at 100 µg/mL (Candida albicans [2])	zone of inhibition at 200 µg/mL (Escherichia coli [3])	zone of inhibition at 100 µg/mL (Escherichia coli [4])	zone of inhibition at 200 µg/mL (Staphylococcus aureus [5])	zone of inhibition at 200 µg/mL (Candida albicans [6])	zone of inhibition at 100 µg/mL (Pseudomonas aeruginosa [7])	zone of inhibition at 200 µg/mL (Pseudomonas aeruginosa [8])	zone of inhibition at 50 µg/mL (Staphylococcus aureus [9])	zone of inhibition at 200 µg/mL (Aspergillus niger [10])	zone of inhibition at 50 µg/mL (Escherichia coli [11])	zone of inhibition at 50 µg/mL (Aspergillus niger [12])	zone of inhibition at 200 µg/mL (Bacillus subtilis [13])	zone of inhibition at 100 µg/mL (Bacillus subtilis [14])	zone of inhibition at 100 µg/mL (Staphylococcus aureus [15])	zone of inhibition at 50 µg/mL (Candida albicans [16])	zone of inhibition at 50 µg/mL (Pseudomonas aeruginosa [17])	zone of inhibition at 50 µg/mL (Bacillus subtilis [18])
O=C1NC(c2ccccc2)(c2ccccc2)C(=O)N1Cn1cnc2ccccc21	19 mm	24 mm	24 mm	15 mm	15 mm	32 mm	11 mm	14 mm	5 mm	32 mm	7 mm	16 mm	23 mm	13 mm	13 mm	16 mm	6 mm	5 mm
O=C1N(c2ccccc2)C(=O)C(c2ccccc2)(c2ccccc2)N1Cn1cnc2ccccc21	19 mm	24 mm	18 mm	12 mm	12 mm	32 mm	8 mm	12 mm	5 mm	32 mm	6 mm	16 mm	18 mm	13 mm	10 mm	16 mm	4 mm	5 mm
CN(C)CN1C(=O)N(c2ccccc2)C(=O)C1(c1ccccc1)c1ccccc1	18 mm	18 mm	18 mm	13 mm	12 mm	19 mm	10 mm	14 mm	4 mm	18 mm	5 mm	16 mm	18 mm	10 mm	9 mm	16 mm	6 mm	5 mm
CN1CCN(CN2C(=O)N(c3ccccc3)C(=O)C2(c2ccccc2)c2ccccc2)CC1	12 mm	13 mm	16 mm	13 mm	18 mm	13 mm	6 mm	10 mm	6 mm	12 mm	6 mm	11 mm	14 mm	5 mm	10 mm	12 mm	4 mm	4 mm
O=C1N(c2ccccc2)C(=O)C(c2ccccc2)(c2ccccc2)N1Cn1nnc2ccccc21	11 mm	12 mm	14 mm	8 mm	14 mm	13 mm	10 mm	12 mm	4 mm	11 mm	3 mm	11 mm	18 mm	12 mm	10 mm	11 mm	6 mm	5 mm
CCN(CC)CN1C(=O)NC(c2ccccc2)(c2ccccc2)C1=O	10 mm	10 mm	18 mm	13 mm	14 mm	11 mm	9 mm	14 mm	5 mm	12 mm	3 mm	8 mm	15 mm	9 mm	10 mm	9 mm	5 mm	3 mm
O=C1N(c2ccccc2)C(=O)C(c2ccccc2)(c2ccccc2)N1CN1CCOCC1	11 mm	12 mm	15 mm	8 mm	9 mm	15 mm	6 mm	11 mm	5 mm	12 mm	4 mm	10 mm	11 mm	9 mm	6 mm	10 mm	4 mm	4 mm
O=C1NC(c2ccccc2)(c2ccccc2)C(=O)N1CNc1nccs1	11 mm	12 mm	24 mm	15 mm	21 mm	13 mm	12 mm	20 mm	4 mm	11 mm	6 mm	11 mm	19 mm	11 mm	10 mm	11 mm	4 mm	5 mm
O=C1NC(c2ccccc2)(c2ccccc2)C(=O)N1Cn1ccnc1	17 mm	24 mm	22 mm	16 mm	20 mm	30 mm	10 mm	20 mm	6 mm	19 mm	6 mm	15 mm	15 mm	11 mm	11 mm	17 mm	6 mm	5 mm
